# What was measured:
# [1] = test system: Mouse intestinal CCK-producing cell line STC-1; test: Confirmation test of CCK secretion-stimulating activity (CCK in supernatant, enzyme immunoassay); type: cell-based; parameters: key to CCK secretion-promoting activity Significant difference from vehicle Group 3 / CCK secretion-promoting activity Significant difference from vehicle Group 4 / CCK secretion-promoting activity Significant difference from vehicle Group 1 / CCK secretion-promoting activity Significant difference from vehicle Group 5: *: A significant difference (P < 0.05) was found; —: No significant difference was found; conditions: for CCK secretion-promoting activity Significant difference from vehicle Group 1: experimental group 1; for CCK secretion-promoting activity Significant difference from vehicle Group 3: experimental group 3; for CCK secretion-promoting activity Significant difference from vehicle Group 4: experimental group 4; for CCK secretion-stimulating activity (in words): single test material
# Description: As a condition for maximizing the secretion amount of CCK in a cell test system, 70 mM KCl (positive control) causing hormone release by depolarization was prepared.
# Since the number of materials that can be tested at once is restricted, the test materials were divided into five groups as shown in Table 1. In order to solve the discontinuity between experimental groups, every group included trans,trans-2,4-decadienal. Each test material was tested three times, and the average value of the results was calculated.
# The test materials were each dissolved in ethanol, and each solution was diluted with Hepes buffer (140 mM NaCl, 4.5 mM KCl, 20 mM Hepes, 1.2 mM CaCl2, 1.2 mM MgCl2, and 10 mM D-glucose, pH 7.4) to give a 0.1 vol % ethanol solution, which was used as the evaluation solution.
# Mouse intestinal CCK-producing cell line STC-1 was cultured in a 48-well plate for two to three days until subconfluent in a Dulbecco's modified Eagle's medium containing 10% bovine fetal serum at 37° C. in the presence of 5% CO2. After the wells were washed with Hepes buffer, 100 μL of the evaluation solution containing 100 μM of a test material was added to a well, followed by incubation at 37° C. for 60 minutes. The supernatant was collected and was centrifuged (800×g, 5 min, 4° C.) to precipitate the exfoliated cells. The resulting supernatant (80 μL) was collected and was cryopreserved. The concentration of CCK in the supernatant was measured with a commercially available enzyme immunoassay kit (manufactured by Phoenix Pharmaceuticals, Inc.).
# In order to investigate the change in the secretion amount of CCK by addition of a test material to the cells in a general condition, a value obtained by subtracting the measured value of the vehicle from the measured value of a sample was used as the true value, and the score of the CCK secretion-stimulating activity was determined by dividing the true value by the value of 70 mM KCl as a control. The variance was analyzed for each experimental group. The difference in variance between an experimental group and the vehicle was examined for determining whether there was a significant difference (P<0.05). […]
# [2] = swallowing; cited from earlier work
# [3] = Table 2A, 100 μM test material, 60 minutes, STC-1, (sample minus vehicle) divided by value of 70 mM KCl control
# [4] = Table 2B, 100 μM test material, 60 minutes, STC-1, (sample minus vehicle) divided by value of 70 mM KCl control
# [5] = Table 3, single ingredient (100 μM) or control, relative to 70 mM KCl
molecule,measurement,setting,value
"[Cl-].[K+] [70 mM KCl, KCl]",CCK secretion-promoting activity Score,[1]; [3],1
same,CCK secretion-promoting activity Score,[1]; [4],1
same,CCK secretion-promoting activity Score,[1]; [5],1
"CCCC=O.CCCC=O [Comparative Example 1, butanal (butyraldehyde)]",CCK secretion-promoting activity Score,[1]; [4],0.017
same,CCK secretion-promoting activity Significant difference from vehicle Group 1,"[1]; Table 2B, 100 μM",—
"CC/C=C\CCC=O [Comparative Example 11, cis-4-heptenal]",CCK secretion-promoting activity Score,[1]; [4],−0.001
"C/C=C/C=C/C=O [Example 1, trans,trans-2,4-hexadienal]",CCK secretion-promoting activity Score,[1]; [3],0.840
same,CCK secretion-promoting activity Significant difference from vehicle Group 1,"[1]; Table 2A, 100 μM",* (A significant difference (P < 0.05) was found)
"CC/C=C/C=C/C=O [Example 2, trans,trans-2,4-heptadienal]",CCK secretion-promoting activity Score,[1]; [3],0.885
same,CCK secretion-promoting activity Significant difference from vehicle Group 1,"[1]; Table 2A, 100 μM",* (A significant difference (P < 0.05) was found)
"CCCC/C=C/C=C/C=O [Example 3, trans,trans-2,4-nonadienal]",CCK secretion-promoting activity Score,[1]; [3],0.975
same,CCK secretion-promoting activity Significant difference from vehicle Group 1,"[1]; Table 2A, 100 μM",* (A significant difference (P < 0.05) was found)
"CCCCC/C=C/C=C/C=O [Example 4, trans,trans-2,4-decadienal]",CCK secretion-promoting activity Score,[1]; [3],1.088
same,CCK secretion-promoting activity Significant difference from vehicle Group 1,"[1]; Table 2A, 100 μM",* (A significant difference (P < 0.05) was found)
same,CCK secretion-promoting activity Significant difference from vehicle Group 3,"[1]; Table 2A, 100 μM",* (A significant difference (P < 0.05) was found)
same,CCK secretion-promoting activity Significant difference from vehicle Group 4,"[1]; Table 2A, 100 μM",* (A significant difference (P < 0.05) was found)
same,CCK secretion-promoting activity Significant difference from vehicle,"[1]; Table 3, single ingredient (100 μM)",* (A significant difference (P < 0.05) was found)
same,CCK secretion-promoting activity Score,[1]; [5],1.088
same,CCK secretion-stimulating activity (in words),[1]; STC-1,the highest
"CCCCCCC/C=C/C=C/C=O [Example 5, trans,trans-2,4-dodecadienal]",CCK secretion-promoting activity Score,[1]; [3],0.720
"C/C=C/C=O.C/C=C/C=O [Example 6, trans-2-butenal (crotonaldehyde)]",CCK secretion-promoting activity Score,[1]; [3],0.644
same,CCK secretion-promoting activity Significant difference from vehicle Group 1,"[1]; Table 2A, 100 μM",* (A significant difference (P < 0.05) was found)
"CCCC/C=C/C=O [Example 7, trans-2-heptenal]",CCK secretion-promoting activity Score,[1]; [3],0.624
same,CCK secretion-promoting activity Significant difference from vehicle Group 1,"[1]; Table 2A, 100 μM",* (A significant difference (P < 0.05) was found)
"CCCCC/C=C/C=O [Example 8, trans-2-octenal]",CCK secretion-promoting activity Score,[1]; [3],0.698
same,CCK secretion-promoting activity Significant difference from vehicle Group 4,"[1]; Table 2A, 100 μM",* (A significant difference (P < 0.05) was found)
"CCCCCC/C=C/C=O [Example 9, trans-2-nonenal]",CCK secretion-promoting activity Score,[1]; [3],0.491
same,CCK secretion-promoting activity Significant difference from vehicle Group 3,"[1]; Table 2A, 100 μM",—
"CCCCC/C=C/CCC=O [Example 10, trans-4-decenal]",CCK secretion-promoting activity Score,[1]; [3],0.441
"CCCCC/C=C\CCC=O [Example 11, cis-4-decenal]",CCK secretion-promoting activity Score,[1]; [3],0.377
same,CCK secretion-promoting activity Significant difference from vehicle Group 4,"[1]; Table 2A, 100 μM",—
"C=CC(=O)O [Example 12, acrylic acid]",CCK secretion-promoting activity Score,[1]; [3],0.957
same,CCK secretion-promoting activity Significant difference from vehicle Group 4,"[1]; Table 2A, 100 μM",* (A significant difference (P < 0.05) was found)
"CCCCCCCC=O [compound 2, octanal]",CCK secretion-promoting activity Score,[1]; [4],−0.004
same,CCK secretion-promoting activity Significant difference from vehicle Group 3,"[1]; Table 2B, 100 μM",—
"CCCCCCCCC=O [compound 3, nonanal]",CCK secretion-promoting activity Score,[1]; [4],−0.003
same,CCK secretion-promoting activity Significant difference from vehicle Group 1,"[1]; Table 2B, 100 μM",—
"CCCCCCCCCC=O [compound 4, decanal]",CCK secretion-promoting activity Score,[1]; [4],0.042
"CCCCCCCCCCC=O [compound 5, undecanal]",CCK secretion-promoting activity Score,[1]; [4],0.189
"CCCCCCCCCCCC=O [compound 6, dodecanal]",CCK secretion-promoting activity Score,[1]; [4],−0.093
"CCCCCCCCCCCCC=O [compound 7, tridecanal]",CCK secretion-promoting activity Score,[1]; [4],0.049
"CCCCCCC/C=C/C=O [compound 8, trans-2-decenal]",CCK secretion-promoting activity Score,[1]; [4],0.046
"CCCCCCCC/C=C/C=O [compound 9, trans-2-undecenal]",CCK secretion-promoting activity Score,[1]; [4],−0.137
same,CCK secretion-promoting activity Significant difference from vehicle Group 3,"[1]; Table 2B, 100 μM",—
"CCCCCCCCC/C=C/C=O [compound 10, trans-2-dodecenal]",CCK secretion-promoting activity Score,[1]; [4],−0.319
same,CCK secretion-promoting activity Significant difference from vehicle Group 3,"[1]; Table 2B, 100 μM",—
"CC/C=C\CCCCC=O [compound 12, cis-6-nonenal]",CCK secretion-promoting activity Score,[1]; [4],−0.648
same,CCK secretion-promoting activity Significant difference from vehicle Group 3,"[1]; Table 2B, 100 μM",—
"CC/C=C\CCCCCC=O [compound 13, cis-7-decenal]",CCK secretion-promoting activity Score,[1]; [4],0.274
"C=CCCCCCCCCC=O [compound 14, trans-10-undecenal]",CCK secretion-promoting activity Score,[1]; [4],−0.458
same,CCK secretion-promoting activity Significant difference from vehicle Group 3,"[1]; Table 2B, 100 μM",—
"C=CCO [compound 15, 2-propen-1-ol]",CCK secretion-promoting activity Score,[1]; [4],0.557
same,CCK secretion-promoting activity Significant difference from vehicle Group 4,"[1]; Table 2B, 100 μM",—
"CCCCC/C=C/CO [compound 16, trans-2-octen-1-ol]",CCK secretion-promoting activity Score,[1]; [4],0.321
same,CCK secretion-promoting activity Significant difference from vehicle Group 4,"[1]; Table 2B, 100 μM",—
"CCCCC/C=C\CCCO [compound 17, cis-4-decen-1-ol]",CCK secretion-promoting activity Score,[1]; [4],−0.171
same,CCK secretion-promoting activity Significant difference from vehicle Group 4,"[1]; Table 2B, 100 μM",—
"CCCCCCCCO [compound 18, 1-octanol]",CCK secretion-promoting activity Score,[1]; [4],−0.134
"CCCCCCCCCCO [compound 19, n-decyl alcohol]",CCK secretion-promoting activity Score,[1]; [4],0.070
"CCCCCCCCCCCCO [compound 20, dodecyl alcohol]",CCK secretion-promoting activity Score,[1]; [4],−0.304
"CCCCCCCCCCCCCO [compound 21, n-tridecyl alcohol]",CCK secretion-promoting activity Score,[1]; [4],−0.225
"CCCCCC/C=C/C(C)=O [compound 22, trans-3-decen-2-one]",CCK secretion-promoting activity Score,[1]; [4],0.169
"CCCCC/C=C/C(=O)O [compound 23, trans-2-octenoic acid]",CCK secretion-promoting activity Score,[1]; [4],0.146
same,CCK secretion-promoting activity Significant difference from vehicle Group 4,"[1]; Table 2B, 100 μM",—
"CCCCCCCC(=O)O [compound 24, n-octanoic acid]",CCK secretion-promoting activity Score,[1]; [4],−0.140
"CCCCCCCCCC(=O)O [compound 25, decanoic acid]",CCK secretion-promoting activity Score,[1]; [4],−0.207
"CCCCCCCCCCCC(=O)O [compound 26, lauric acid]",CCK secretion-promoting activity Score,[1]; [4],−0.225
"CCCCCCCCCCCCC(=O)O [compound 27, n-tridecanoic acid]",CCK secretion-promoting activity Score,[1]; [4],−0.234
"CCCCCCCCCC [compound 28, decane]",CCK secretion-promoting activity Score,[1]; [4],−0.224
"C/C=C\CCCCCCC [compound 29, cis-2-decene]",CCK secretion-promoting activity Score,[1]; [4],−0.208
C=CC=O [propenal],CCK secretion-stimulating activity (in words),[1]; STC-1,has a CCK-secreting activity
same,GHS class of acute toxicity,[2],class 2
"trans,trans-1,9-decadiene [compound 30]",CCK secretion-promoting activity Score,[1]; [4],−0.211
same,CCK secretion-promoting activity Significant difference from vehicle Group 5,"[1]; Table 2B, experimental group 5, 100 μM",—

# From patent publication US9554990B2, “Cholecystokinin secretion-promoting composition” (J-OIL MILLS, INC., priority 2012, dated 2017)
